In one assay the test system is HOP62. Kind of assay: Cell growth inhibition assay (Cell Titer Glo, 3 days). Format: cell-based, Human. The conditions noted are these: HOP62 (KRAS_G12C), single agent, mean ± std. Here is the method: (§1) Human tumor cell lines from lung cancer, A427, A549, Calu1, Calu3, Calu6, COR-L23, HOP62, MV522, NCI-H1155, NCI-H1299, NCI-H1355, NCI-H1395, NCI-H157, NCI-H1573, NCI-H1666, NCI-1755, NCI-H1792, NCI-2009, NCI-H2030, NCI-H2122, NCI-H2291, NCI-H23, NCI-H2347, NCI-H358, NCI-H441, NCI-H460, NCI-H650, NCI-H727, SW1573 and SW900 were cultured in RPMI 1640 medium containing 10% fetal bovine serum (FBS). Cell line mutation data was collated for the status for the RAS and RAF genes. The data source is the cancer cell line mutation screening data published as part of the Catalog of Somatic Mutations in Cancer database (COSMIC) (Bamford S. et al. Br. J. Cancer. 2004. 91:355-58) and/or in house DNA sequencing.
(§2) Cells were seeded in a 96-well tissue culture plate (NUNC 136102) of RPMI medium containing 10% FBS at 500-2,000 cells per well. Approximately 24 hours after plating, cells were exposed to ten, two-fold or three-fold serial dilutions of either Compound A or B or the combination of the two agents at a 10:1 molar ratio (Compounds A and B respectively). The final dosing concentration range for Compound A was 2-1000 nM and was 0.2-100 nM for Compound B. Cells were incubated in the presence of compounds for 3 days. ATP levels were determined by adding Cell Titer Glo® (Promega) according to the manufacturer's protocol. Briefly, Cell Titer Glo® was added to each plate, incubated for 20 minutes then luminescent signal was read on the SpectraMax L plate reader with a 0.5 sec integration time. All assays were run at least in duplicate.
(§3) Inhibition of cell growth was estimated after treatment with compound or combination of compounds for three days and comparing the signal to cells treated with vehicle (DMSO). Cell growth was calculated relative to vehicle (DMSO) treated control wells. Concentration of compound that inhibits 50% of control cell growth (IC50) was back-interpolated when y=50% of DMSO treated control wells using nonlinear regression with the equation: […]
A general note: ATP-based viability assays read luminescence as a measure of living cells.

Another assay concerns NCI-H1355. Described as above. The conditions noted are these: NCI-H1355 (KRAS_G13C), single agent, mean ± std. Format: cell-based, Human. Here is the method:
as §1, §2, §3

In the next assay the test system is NCI-H1573. The assay is described as above. Format: cell-based, Human. The conditions noted are these: NCI-H1573 (KRAS-G12A), single agent, mean ± std. Here is the method:
as §1, §2, §3

The subject of the next assay is NCI-H1666. Described as above. Format: cell-based, Human. The conditions noted are these: NCI-H1666 (BRAF_G466V), single agent, mean ± std. Here is the method:
as §1, §2, §3

The subject of another assay is NCI-H1755. The assay is described as above. Format: cell-based, Human. The note with it: NCI-H1755 (BRAF_G469A), single agent, mean ± std. The procedure:
as §1, §2, §3

In another assay the test system is NCI-H2009. The description is as above. Format: cell-based, Human. The note with it: NCI-H2009 (KRAS-G12A), single agent, mean ± std. Here is the method: as §1, §2, §3
The test system of the next assay is NCI-H2030. Described as above. The conditions noted are these: NCI-H2030 (KRAS_G12C), single agent, mean ± std. Format: cell-based, Human. Here is the method: as §1, §2, §3
Another assay has as its system NCI-H2291. Described as above. Format: cell-based, Human. The conditions noted are these: NCI-H2291 (KRAS_G12F), single agent, mean ± std. Here is the method: as §1, §2, §3
The subject of the next assay is NCI-H460. The assay is described as above. Format: cell-based, Human. The note with it: NCI-H460 (KRAS_Q61H), single agent, mean ± std. The procedure:
as §1, §2, §3

Another assay has as its system SW900. The description is as above. Format: cell-based, Human. The note with it: SW900 (KRAS_G12V), single agent, mean ± std. The procedure:
as §1, §2, §3

The subject of assay [1] is A549 lung cancer cell line. Kind of assay: Assay 2: cell growth (CellTiterGlo, 72 hours), Ymin. Format: cell-based. The note with it: percent of T=0 (T=0 = 100%). Here is the method:
FIG. 5 depicts the effect of MEK inhibitor, mTOR inhibitor and their combination on A549 lung cancer cell line growth. […] Cells were treated with MEK inhibitor (two fold dilutions ranging from 7.3 uM-0.014 nM) or with mTOR inhibitor (two fold dilutions ranging from 14.6 uM-0.112 nM) or in combination with both compounds and incubated for 72 hours. Cell growth was measured using the CellTiterGlo (CTG) reagent (Promega) according to the manufacturer's protocol. Data were analyzed using the XLfit (IDBS Ltd.) curve-fitting tool for Microsoft Excel. Growth IC50 (gIC50) and Ymin values were generated using a four-parameter curve fit algorithm (XLFit algorithm #205). Results were expressed as a percent of the t=0 and plotted against the compound concentration. […] Formula below was used to calculate mutually exclusive combination index (CI). Data were reported as log CI, where the logarithm value of CI was calculated. […] Similar analysis was performed for all cell lines and Ymin results are depicted in FIG. 6.

[2] abbreviates: Homo sapiens, 72 h, read-out: IC50 Single Agent Compound B.
Setting [3] is: read-out: IC50 Single Agent Compound A.

Where two headings read alike, the source gives them in different places. Bounds are passed on as bounds.

Usually IC50 stands for the concentration needed to halve the response being measured. Turning to `CO[C@H]1C[C@@H]2CC[C@@H](C)[C@@](O)(O2)C(=O)C(=O)N2CCCC[C@H]2C(=O)O[C@H]([C@H](C)C[C@@H]2CC[C@@H](OCCO)[C@H](OC)C2)CC(=O)[C@H](C)/C=C(\C)[C@@H](O)[C@@H](OC)C(=O)[C@H](C)C[C@H](C)/C=C/C=C/C=C/1C` [Compound B, everolimus], the IC50 in the assay on HOP62 (Homo sapiens, HOP-62, 72 h, read-out: IC50 Single Agent Compound B) was over 100 nM; with NCI-H1355 (setting [2]), over 100 nM; in the assay with NCI-H1573 (setting [2]), over 100 nM; in the assay with NCI-H1666 (setting [2]) it was over 100 nM; in the assay on NCI-H1755 (setting [2]), over 100 nM; in the assay on NCI-H2009 (setting [2]), over 100 nM. In addition, the concentration for half-maximal inhibition (IC50) in the assay on NCI-H2030 (setting [2]) is over 10 nM; with NCI-H2291 (setting [2]), over 100 nM; in the assay on NCI-H460 (setting [2]) it was over 70 nM; with SW900 (setting [2]), over 100 nM.
As to “N-{3-[3-cyclopropyl-5-(2-fluoro-4-iodo-phenylamino)6,8-dimethyl;-2,4,7-trioxo-3,4,6,7-tetrahydro-2H-pyrido[4,3-d]pyrimidin-1-yl]phenyl}acetamide [Compound A]”, the IC50 was over 1000 nM in the assay on HOP62 (setting [3]); 67 ± 24 nM with NCI-H1355 (setting [3]); 82 ± 11 nM in the assay with NCI-H1573 (setting [3]); 44 ± 46 nM with NCI-H1666 (setting [3]); 45 ± 6 nM in the assay with NCI-H1755 (setting [3]); 204 ± 78 nM with NCI-H2009 (setting [3]). The IC50 is over 1000 nM with NCI-H2030 (setting [3]), 4 nM in the assay on NCI-H2291 (setting [3]), 37 ± 11 nM in the assay on NCI-H460 (setting [3]) and 141 ± 2 nM with SW900 (setting [3]). The “Ymin (lower Y value at any compound concentration)” value in [1] came out at 257%.

Values taken from patent US20170065593A1, “Combination” (Novartis AG, priority 2009, published 2017).
